The source of these data is paper PMC5354938, “Spleen cells from young but not old immunized mice eradicate large established cancers” (Clinical cancer research : an official journal of the …, 2012).

For one assay, the target named is H2-D^b (Mus musculus, UniProt P01899). Conditions: MHC D^b; geometric mean of 5 or more experiments; Published in ref [19]; read-out: Affinity of peptide for MHC (IC50); cited from earlier work.
For assay [1], the target named is T1, H2-K^b (Mus musculus, UniProt P01901).
T1 construct: made in house
T1 sequence (P01901 22-369): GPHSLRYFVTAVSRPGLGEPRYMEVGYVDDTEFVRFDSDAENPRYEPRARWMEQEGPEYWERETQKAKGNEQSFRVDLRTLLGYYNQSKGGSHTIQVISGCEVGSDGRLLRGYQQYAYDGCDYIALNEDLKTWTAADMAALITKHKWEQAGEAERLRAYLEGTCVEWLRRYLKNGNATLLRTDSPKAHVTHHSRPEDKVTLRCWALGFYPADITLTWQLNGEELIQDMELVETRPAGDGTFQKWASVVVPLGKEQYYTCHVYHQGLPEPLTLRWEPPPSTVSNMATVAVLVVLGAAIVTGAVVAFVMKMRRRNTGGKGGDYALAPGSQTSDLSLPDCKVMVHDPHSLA
T1 sequence (P01887 21-119 partner): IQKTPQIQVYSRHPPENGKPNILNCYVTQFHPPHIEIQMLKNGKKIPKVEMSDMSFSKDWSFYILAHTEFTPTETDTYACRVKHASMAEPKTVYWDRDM
The assay is described as follows: MHC peptide binding assay, purified H2-K^b. The method, then:
MHC purification, and quantitative assays to measure the binding affinity of peptides to purified H2-K^b, H2-D^b, and HLA-A*0201 molecules were performed as previously described ([49], [50]).

Assay [2] has as its target T1, H2-K^b. As to conditions: MHC K^b; geometric mean of 5 or more experiments; Published in ref [19]; read-out: Affinity of peptide for MHC (IC50); cited from earlier work.
Where [3] appears, read: Affinity of peptide for MHC (IC50), MHC K^b, purified H2-K^b, geometric mean of 5 or more experiments.

Where two headings read alike, the source gives them in different places. Ends that are not written are not given here.

Chain of H2-D^b (P01899 whole entry, looked up): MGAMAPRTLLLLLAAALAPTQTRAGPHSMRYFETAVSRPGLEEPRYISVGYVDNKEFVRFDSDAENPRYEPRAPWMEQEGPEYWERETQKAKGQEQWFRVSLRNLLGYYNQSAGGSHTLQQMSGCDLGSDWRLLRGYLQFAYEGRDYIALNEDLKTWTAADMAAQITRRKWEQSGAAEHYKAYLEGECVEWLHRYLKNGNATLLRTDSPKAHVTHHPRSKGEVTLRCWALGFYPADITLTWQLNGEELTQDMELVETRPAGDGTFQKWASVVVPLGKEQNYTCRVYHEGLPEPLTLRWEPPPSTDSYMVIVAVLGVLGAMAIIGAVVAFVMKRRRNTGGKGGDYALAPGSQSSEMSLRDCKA

As for IGMFNLTFI [A23R (297-305)], the 50% inhibitory concentration (IC50) on H2-D^b was 0.34 nM.

Turning to SNFVFAGI [mp68 (547-554, 5F)], the IC50 is 0.48 nM on H2-K^b [1] (setting [3]) and below 1 nM on H2-K^b [1] (binding to MHC Class I molecules with very high affinity (bound), discussion statement, very high affinity).

For the sequence SNFVSAGI [p68 (547-554)], the IC50 at H2-K^b [1] (setting [3]) came out at 22 nM.

As to YTLIYRQL [A6L (265-272)], the half-inhibitory concentration (IC50) at H2-K^b [2] is 6 nM.
